Measured values as given in article PMC6376162, “HEXIM1 Peptide Exhibits Antimicrobial Activity Against Antibiotic Resistant Bacteria Through Guidance of Cell Penetrating Peptide” (Frontiers in Microbiology, 2019).

System: bacterial translation (E. coli lysate)
Assay: In vitro protein synthesis assay (RTS 100 E. coli HY Kit, GFP, Western blot)
Format: biochemical, Escherichia coli
Details: 10 μM streptomycin, RTS with 5 μg GFP mRNA, 30°C, 6 h; positive control
Procedure: The method to study the effect of peptide treatment on in vitro expression of protein was adapted from previous study ([Taniguchi et al., 2016]). RTS^TM 100 E. coli HY Kit (biotechrabbit) was used as a cell-free rapid translation system (RTS) to express green fluorescent protein (GFP) with or without peptide treatment. Streptomycin (Sigma-Aldrich), an antibiotic functioning as an inhibitor of bacterial translation, was used as a positive control. Reaction mixture was prepared as described in the product manual. For the negative control, the remaining 10 μl was topped up with nuclease-free water while for the other reactions, the 10 μl consists of 5 μg GFP mRNA and either nuclease-free water or the indicated treatment (100 μM Pen, Pen-BR, Pen-RRR, CapM2 or 10 μM Streptomycin). Reaction was incubated at 30°C for 6 h before being analyzed with Western blot for the protein level of GFP. To obtain GFP mRNA, control GFP expression vector was first linearized using ApaLI restriction enzyme (New England Biolabs) and then separated via agarose gel electrophoresis. Fragment containing the linearized GFP expression vector was retrieved using FavorPrep GEL Purification Kit (FAVORGEN Biotech Corp.) and subsequently used as the template for MEGAscript^TM T7 Transcription Kit (Thermo Fisher Scientific) to generate GFP mRNA. […]

**Q.** How did the “synthesis of GFP protein (Western blot)” value turn out when `[H]/N=C(/N)N[C@H]1[C@H](O)[C@@H](O)[C@H](O[C@@H]2O[C@@H](C)[C@](O)(C=O)[C@H]2O[C@@H]2O[C@@H](CO)[C@H](O)[C@@H](O)[C@@H]2NC)[C@@H](N/C(N)=N\[H])[C@@H]1O` [streptomycin, Streptomycin] was run?
**A.** significant inhibition
